Reference: patent US4880938A, “Amino acid analogs” (priority 1986, dated 1989)
Where a SMILES comes first, the peptide text is derived from it. [ ]: non-standard residue; d: D form. The star is where a group is joined. sY = N[C@@H](Cc1ccc(OS(=O)(=O)O)cc1)C(=O)O; Cbz = O=C(OCc1ccccc1)*; Boc = CC(C)(C)OC(=O)*

Experiments:
[1] = target: T1, CCK receptor (pancreas) (Rattus norvegicus, UniProt P30551); experiment: 125I-CCK-33 receptor binding (pancreas) method; parameters: species or system rat (male Sprague-Dawley); settings: protease inhibitors added to binding assay buffer
T1 construct: The whole pancreas of a male Sprague-Dawley rat (200-350 g); from tissue; host or cells: whole pancreas of male Sprague-Dawley rat, membrane homogenate
T1 sequence (P30551 1-444): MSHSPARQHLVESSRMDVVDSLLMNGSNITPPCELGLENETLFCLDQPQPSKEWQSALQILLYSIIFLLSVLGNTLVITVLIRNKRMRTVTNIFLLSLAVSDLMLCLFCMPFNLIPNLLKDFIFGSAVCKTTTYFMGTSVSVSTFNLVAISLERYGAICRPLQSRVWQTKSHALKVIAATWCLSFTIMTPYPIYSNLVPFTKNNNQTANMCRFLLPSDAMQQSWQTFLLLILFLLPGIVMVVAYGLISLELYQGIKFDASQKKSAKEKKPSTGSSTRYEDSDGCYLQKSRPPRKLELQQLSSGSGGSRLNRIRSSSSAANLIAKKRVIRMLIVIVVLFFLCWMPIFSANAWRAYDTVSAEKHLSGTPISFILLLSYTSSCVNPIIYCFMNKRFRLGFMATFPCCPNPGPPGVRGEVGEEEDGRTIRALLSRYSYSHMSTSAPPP
Source text: Screening of the novel compounds according to the present invention to determine biological activity and obtain an IC50 value for them, in order to identify significant CCK-antagonism, may be accomplished using an ^125 I-CCK receptor binding assay and in vitro isolated tissue preparations. […] These tests involve the following:
CCK receptor binding (pancreas) method
CCK-33 was radiolabeled with ^125 I-Bolton Hunter reagent (2000 Ci/mmole), as described by Sankara et al. (J. Biol. Chem., 254, 9349-9351, 1979).
The whole pancreas of a male Sprague-Dawley rat (200-350 g), which had been sacrificed by decapitation, was dissected free of fat tissue and homogenized in 20 volumes of ice-cold 50 mM Tris HCl (pH 7.7 at 25° C.) with a Brinkmann Polytron PT-10. The homogenates were centrifuged at 48,000 g for 10 minutes, then the resulting pellets were resuspended in Tris Buffer, centrifuged as above, and resuspended in 200 volumes of binding assay buffer (50 mM Tris HCl, pH 7.7 at 25° C., 5 mM dithiothreitol, 0.1 mM bacitracin, 1.2 mM phenylmethane sulfonyl fluoride and 0.5 mM o-phenanthroline).
The supernatant was aspirated and discarded, and the pellets were counted with a Beckman Gamma 5000.

[2] = system: CCK receptor; settings: background, structure-function studies; cited from earlier work
[3] = system: gastrin; settings: background, in vitro; cited from earlier work
[4] = target: T2, Gastrin receptor (gastric glands) (Cavia porcellus, UniProt H0VZC5); experiment: 125I-gastrin receptor binding in guinea pig gastric glands; parameters: species or system guinea pig (male Hartley); settings: 25° C., 30 minutes
T2 construct: Gastric mucosa from male Hartley guinea pigs (300-500 g body weight); from tissue; host or cells: isolated gastric mucosal glands of male Hartley guinea pigs
T2 sequence (H0VZC5 1-426): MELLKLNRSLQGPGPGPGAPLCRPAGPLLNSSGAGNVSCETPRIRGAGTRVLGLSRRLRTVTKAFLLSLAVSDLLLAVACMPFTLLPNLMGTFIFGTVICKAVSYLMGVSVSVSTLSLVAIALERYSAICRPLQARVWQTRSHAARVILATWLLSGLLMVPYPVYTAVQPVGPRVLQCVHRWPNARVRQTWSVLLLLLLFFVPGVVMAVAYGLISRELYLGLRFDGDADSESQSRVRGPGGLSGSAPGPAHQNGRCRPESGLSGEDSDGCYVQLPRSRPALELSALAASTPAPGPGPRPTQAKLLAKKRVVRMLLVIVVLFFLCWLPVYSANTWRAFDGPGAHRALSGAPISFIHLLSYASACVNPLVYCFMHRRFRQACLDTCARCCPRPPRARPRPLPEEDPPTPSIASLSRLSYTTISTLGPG
Source text: (§1) Screening of the novel compounds according to the present invention to determine biological activity and obtain an IC50 value for them, in order to identify significant CCK-antagonism, may be accomplished using an ^125 I-CCK receptor binding assay and in vitro isolated tissue preparations. To identify significant gastrin antagonism, ^125 I-gastrin and ^3 H-pentagastrin binding assays are used. These tests involve the following:
Gastrin Receptor Binding in Guinea Pig Gastric Glands
Guinea pig gastric mucosal glands were prepared by the procedure of Berglingh and Obrink, Acta Physiol. Scand. 96: 150 (1976), with a slight modification according to Praissman et al. C. J. Receptor Res. 3: (1983). Gastric mucosa from male Hartley guinea pigs (300-500 g body weight) were washed thoroughly and minced with fine scissors in standard buffer consisting of the following: 130 mM NaCl, 12 mM NaHCO3, 3 mM NaH2 PO4, 3 mM Na2 HPO4, 3 mM K2 HPO4, 2 mM MgSO4, 1 mM CaCl2, 5 mM glucose and 4 mM L-glutamine, 25 mM HEPES at pH 7.4. […]
The washed guinea pig gastric glands were resuspended in 25 ml of standard buffer containing 0.25 mg/ml of bacitracin. […] The radioactivity of the filters was measured using a Beckman gamma 5500 for ^125 I-gastrin or liquid scintillation counting for ^3 H-pentagastrin.

[5] = target: T3, CCK receptor (brain, cerebral cortex) (Cavia porcellus, UniProt H0VZC5); experiment: 125I-CCK-33 receptor binding (brain) method; parameters: species or system guinea pig (male Hartley); settings: 125I-CCK-33, guinea pig cerebral cortex, 25° C., 2 hours
T3 construct: The cerebral cortex was dissected and used as a receptor source; from tissue; host or cells: cerebral cortex of male Hartley guinea pigs, membrane homogenate
T3 sequence (H0VZC5 1-426): T2 sequence (H0VZC5 1-426)
Source text: as §1
CCK receptor binding (brain) method
CCK-33 was radiolabeled and the binding was performed according to the description for the pancreas method, with modifications according to Saito et al., J. Neurochem., 37, 483-490, 1981.
Male Hartley guinea pigs (300-500 g) were sacrificed by decapitation, and the brains were removed and placed in ice-cold 50 mM Tris HCl plus 7.58 g/l Trizma-7.4 [pH 7.4 at 25° C.]. The cerebral cortex was dissected and used as a receptor source and each gram of fresh guinea pig brain tissue was homogenized in 10 ml of Tris/Trizma buffer with a Brinkmann polytron PT-10. The homogenates were centrifuged at 42,000 g for 15 minutes, then the resulting pellets were resuspended in 200 volumes of binding assay buffer (10 mM N-2-hydroxy-ethyl-piperazine-N'-2-ethane-sulfonic acid (HEPES), pH 7.7 at 25° C., 5 mM MgCl2, 1 mM ethyl glycol-bis-(β-amino-ethyl-ether-N,N'-tetraacetic acid (EGTA), 0.4% BSA (bovine serum albumin) and 0.25 mg/ml bacitracin, pH 6.5).
The remainder of the binding assay method was as described for the pancreas method, except that the reaction mixtures were incubated at 25° C. for 2 hours before centrifugation.

Row | IC50 [5] | Structure (SMILES) | CCK antagonism (in words) [2] | further results
1 |  | c1cnc2c(c1)ccc1cccnc12 [o-phenanthroline] |  | effect on the 125I-CCK receptor binding assay (in words) [1]: no effect
2 |  | CCCC(=O)Nc1nc2c(ncn2[C@@H]2O[C@@H]3COP(=O)(O)O[C@H]3[C@H]2OC(=O)CCC)c(=O)[nH]1 [dibutyryl cyclic GMP] | most potent | 
3 |  | CCCN(CCC)C(=O)C(CCC(=O)O)NC(=O)c1ccccc1 (racemic) [Compound 1, reference compound] |  | gastrin antagonism (in words) [3]: very weak in vitro antagonists
4 | 3.4 µM | O=C(O)CC[C@@H](NC(=O)c1cc2ccccc2[nH]1)C(=O)N(C1CCCCC1)C1CCCCC1 [Compound 10, (R)-5-(dicyclohexylamino)-4[(1H-indol-2-ylcarbonyl)amino]-5-oxo-pentanoic acid] |  | IC50 [4]: 4.1 µM
5 |  | CSCC[C@H](N)C(=O)N[C@@H](CC(=O)O)C(=O)N[C@@H](Cc1ccccc1)C(N)=O [Met-Asp-Phe-NH2] (H-Met-Asp-Phe-NH2) | can function as CCK antagonists | 
6 |  | CSCC[C@H](NC(=O)[C@H](Cc1ccc(OS(=O)(=O)O)cc1)NC(=O)OCc1ccccc1)C(=O)NCC(=O)N[C@@H](Cc1c[nH]c2ccccc12)C(=O)N[C@@H](CCSC)C(=O)N[C@@H](CC(=O)O)C(N)=O [Cbz-Tyr(SO3 H)-Met-Gly-Trp-Met-Asp-NH2] (Cbz-[sY]MGWMD-NH2) | partial agonist | 
7 | 2.2 µM | CCCCCN(CCCCC)C(=O)C(CCC(=O)O)NC(=O)c1ccc(Cl)c(Cl)c1 (racemic) [Compound 2, reference compound] |  | 
8 |  | CSCC[C@H](NC(=O)OC(C)(C)C)C(=O)N[C@@H](CC(=O)O)C(=O)N[C@@H](Cc1ccccc1)C(N)=O [Boc-Met-Asp-Phe-NH2] (Boc-Met-Asp-Phe-NH2) | can function as CCK antagonists | 
9 | 5.3 µM | CCCCCN(CCCCC)C(=O)C(CCC(=O)OCc1ccccc1)NC(=O)Nc1ccc(Cl)cc1 (racemic) [Compound 8, (RS)-4-[(4-chlorophenylaminocarbonyl)amino]-5-(dipentylamino)-5-oxo-1-(phenylmethyloxy)pentanoic acid] |  | IC50 [4]: 22 µM
10 |  | O=S(=O)(F)Cc1ccccc1 [phenylmethane sulfonyl fluoride] |  | effect on the 125I-CCK receptor binding assay (in words) [1]: no effect
